We go through 14 compounds from paper PMC11314129, “Synthesis, Computational Study, and In Vitro α-Glucosidase Inhibitory Action of Thiourea Derivatives Based on 3-Aminopyridin-2(1H)-Ones” (Molecules, 2024).

Broadly, the IC50 is the concentration needed to halve the response being measured. Usually melting point stands for the temperature, or range, at which the solid turns liquid.

Entries after “also recorded” stand apart in the source; their conditions may differ.

In series [1] the target is T1, α-glucosidase from Saccharomyces cerevisiae (Saccharomyces cerevisiae, UniProt P53341).
T1 construct: purchased Sigma-Aldrich
Kind of series: biochemical. In kind it is biochemical. To be noted: for inhibition at 15000 µM: read-out: Inhibitory Activity of Test Compounds at a Concentration of 15 mM Against the α-Glucosidase Enzyme (%); for Inhibitory Activity of Test Compounds at a Concentration of 15 mM Against the α-Glucosidase Enzyme (%) / IC50 (mM): mean ± standard error of the mean; for Inhibitory Activity of Test Compounds at a Concentration of 15 mM Against the α-Glucosidase Enzyme (%): triplets; for IC50 (mM): from graph of enzyme activity vs concentration. As for the experimental part: Antidiabetic activity was assessed by the degree of the inhibition of α-glucosidase activity by the test substances.
The study of the α-glucosidase activity inhibition degree by the test compounds was performed using a standard method with minor modifications.
Antidiabetic activity was assessed by the degree of inhibition of α-glucosidase activity by the test substances. The α-glucosidase enzyme determines the extent to which glucose enters the bloodstream from the gastrointestinal tract. […] The enzyme (α-glucosidase from Saccharomyces cerevisiae, Sigma-Aldrich, St. Louis, MO, USA, 1.0 U/mL) in phosphate-buffered saline was incubated with various concentrations of test compounds at 37 °C for 15 min. All the studied substances were dissolved in 40% DMSO. Then, 5 mM p-nitrophenyl α-d-glucopyranoside was added to the mixture as a substrate. The mixture was incubated at […] for 20 min. The absorbance was measured spectrophotometrically at 405 nm. The sample solution was replaced by 40% DMSO as a control. […] All samples were studied in triplets.
Inhibitory activity was expressed as a percentage (%) according to the degree of inhibition of α-glucosidase in comparison with the negative control. It was calculated using the following formula:
Inhibitory activity (%) = (1 − As/Ac) × 100%, where As is the optical density of the test compound, and Ac is the optical density of control.
The IC50 was determined from the graph of enzyme activity changes depending on the sample concentration.
The statistical processing of the results was carried out using the “Excel 2019” program.

Another series concerns glucose-6-phosphatase. Also on record: method as in PMID 33304132. The following applies: Swiss albino mice, cited from earlier work.

T1 sequence (P53341 whole entry): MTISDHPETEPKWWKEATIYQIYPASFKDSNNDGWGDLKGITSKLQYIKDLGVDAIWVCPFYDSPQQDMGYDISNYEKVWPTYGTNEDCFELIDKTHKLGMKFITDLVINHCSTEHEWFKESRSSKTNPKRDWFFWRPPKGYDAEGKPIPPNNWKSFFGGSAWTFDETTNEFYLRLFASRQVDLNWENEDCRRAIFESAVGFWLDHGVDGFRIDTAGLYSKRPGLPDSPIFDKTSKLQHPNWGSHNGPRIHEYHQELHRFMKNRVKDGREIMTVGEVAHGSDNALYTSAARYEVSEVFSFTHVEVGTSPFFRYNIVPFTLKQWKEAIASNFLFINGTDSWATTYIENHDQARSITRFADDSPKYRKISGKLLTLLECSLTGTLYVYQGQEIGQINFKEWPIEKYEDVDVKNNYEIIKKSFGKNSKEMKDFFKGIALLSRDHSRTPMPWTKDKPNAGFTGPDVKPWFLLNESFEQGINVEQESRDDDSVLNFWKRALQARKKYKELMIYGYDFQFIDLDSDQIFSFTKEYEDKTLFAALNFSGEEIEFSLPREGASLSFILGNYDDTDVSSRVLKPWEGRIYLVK

As to `C[C@H]1O[C@H](O[C@H]2[C@H](O)[C@@H](O)[C@@H](O[C@H]3[C@H](O)[C@@H](O)C(O)O[C@@H]3CO)O[C@@H]2CO)[C@H](O)[C@@H](O)[C@@H]1N[C@H]1C=C(CO)[C@@H](O)[C@H](O)[C@H]1O` (stereo partly shown) [Acarbose, reference compound], the inhibition at 15000 µM in series [1] was found to be 46.1 ± 4.6%.
On to `S=C(NC(c1ccccn1)C(Cc1ccccc1)Cc1ccccc1)NC(c1ccccn1)C(Cc1ccccc1)Cc1ccccc1` (stereo not shown) [Compound 4, 1,3-bis(2-benzyl-3-phenyl-1-(pyridine-2-yl)propyl)thiourea], for which the “inhibition of the enzyme glucose-6-phosphatase” value in the series on glucose-6-phosphatase (streptozotocin diabetes) is listed as “highest inhibition value”. Also, the “safety for use in animals” value in the series on glucose-6-phosphatase is “without having any toxic or lethal effects”.
As for `C=CCNC(=S)Nc1c(C)cc(C)[nH]c1=O` [Compound 8a, 1-allyl-3-(4,6-dimethyl-2-oxo-1,2-dihydropyridin-3-yl)thiourea], in series [1], half-maximal inhibition (IC50) was put at 16.6 ± 1.57 mM and the inhibition at 15000 µM is 23.3 ± 1.7%.
`C=CCNC(=S)Nc1c(-c2ccccc2)cc(C)[nH]c1=O` [Compound 8b, 1-allyl-3-(6-methyl-2-oxo-4-phenyl-1,2-dihydropyridin-3-yl)thiourea]: in series [1], half-maximal inhibition (IC50) required 19.8 ± 2.55 mM and the inhibition at 15000 µM worked out at 26.9 ± 2.5%.
In turn, `C=CCNC(=S)Nc1c(-c2cccs2)cc(C)[nH]c1=O` [Compound 8c, 1-Allyl-3-(6-methyl-2-oxo-4-(thiophen-2-yl)-1,2-dihydropyridin-3-yl)thiourea] came in with a melting point of 289 to 292 °C. Also, in series [1], the “inhibitory activity against α-glucosidase (in words)” value (“inhibitory activity … (in words)” for short) is given as “did not show inhibitory activity; also recorded: showed no inhibitory activity”, the “Inhibitory Activity of Test Compounds at a Concentration of 15 mM Against the α-Glucosidase Enzyme (%)” value (“Inhibitory Activity of Test Compounds … (%)” for short) is reported as “No activity” and the “IC50 (mM)” value is reported as “No activity”.
Regarding `Cc1cc(C)c(NC(=S)Nc2ccccc2)c(=O)[nH]1` [Compound 9a, 1-(4,6-Dimethyl-2-oxo-1,2-dihydropyridin-3-yl)-3-phenylthiourea], the melting point fell in the range of 140 to 143 °C. In addition, in series [1], the IC50 stood at 9.77 ± 0.83 mM and the inhibition at 15000 µM came out at 56.6 ± 2.2%.
For `Cc1cc(-c2ccccc2)c(NC(=S)Nc2ccccc2)c(=O)[nH]1` [Compound 9b, 1-(6-Methyl-2-oxo-4-phenyl-1,2-dihydropyridin-3-yl)-3-phenylthiourea] the same measures were 141 to 144 °C, 21.8 ± 2.65 mM and 35.2 ± 3.4%.
As for `Cc1cc(-c2cccs2)c(NC(=S)Nc2ccccc2)c(=O)[nH]1` [Compound 9c, 1-(6-Methyl-2-oxo-4-(thiophen-2-yl)-1,2-dihydropyridin-3-yl)-3-phenylthiourea], the melting point is 145 to 147 °C. The inhibition at 15000 µM in series [1] was 41.2 ± 2.5%.
In turn, `CC(=O)NC(=S)Nc1c(C)cc(C)[nH]c1=O` [Compound 10a, N-((4,6-Dimethyl-2-oxo-1,2-dihydropyridin-3-yl)carbamothioyl)acetamide] gave a melting point of 273 to 275 °C. Besides, in series [1], the “inhibitory activity … (in words)” value is reported as “did not show inhibitory activity; also recorded: showed no inhibitory activity”, the “Inhibitory Activity of Test Compounds … (%)” value is “No activity” and the “IC50 (mM)” value is “No activity”.
Regarding `CC(=O)NC(=S)Nc1c(-c2ccccc2)cc(C)[nH]c1=O` [Compound 10b, N-((6-Methyl-2-oxo-4-phenyl-1,2-dihydropyridin-3-yl)carbamothioyl)acetamide], the melting point was 249 to 251 °C. Also, in series [1], the “inhibitory activity … (in words)” value is reported as “did not show inhibitory activity; also recorded: showed no inhibitory activity”, the “Inhibitory Activity of Test Compounds … (%)” value is recorded as “No activity” and the “IC50 (mM)” value is “No activity”.
Take `CC(=O)NC(=S)Nc1c(-c2cccs2)cc(C)[nH]c1=O` [Compound 10c, N-((6-Methyl-2-oxo-4-(thiophen-2-yl)-1,2-dihydropyridin-3-yl)carbamothioyl)acetamide]: the melting point is 252 to 254 °C. Besides, in series [1], the “inhibitory activity … (in words)” value was “did not show inhibitory activity; also recorded: showed no inhibitory activity”, the “Inhibitory Activity of Test Compounds … (%)” value is given as “No activity” and the “IC50 (mM)” value is given as “No activity”.
Compound `Cc1cc(C)c(NC(=S)NC(=O)c2ccccc2)c(=O)[nH]1` [Compound 11a, N-((4,6-Dimethyl-2-oxo-1,2-dihydropyridin-3-yl)carbamothioyl)benzamide] had a melting point of 230 to 232 °C. Also, in series [1], the “inhibitory activity … (in words)” value is on record as “did not show inhibitory activity; also recorded: showed no inhibitory activity”, the “Inhibitory Activity of Test Compounds … (%)” value was “No activity” and the “IC50 (mM)” value was “No activity”.
`Cc1cc(-c2ccccc2)c(NC(=S)NC(=O)c2ccccc2)c(=O)[nH]1` [Compound 11b, N-[(6-Methyl-2-oxo-4-phenyl-1,2-dihydropyridin-3-yl)carbamothioyl]benzamide] registered a melting point of 218 to 220 °C. In addition, in series [1], the “inhibitory activity … (in words)” value is recorded as “did not show inhibitory activity; also recorded: showed no inhibitory activity”, the “Inhibitory Activity of Test Compounds … (%)” value is given as “No activity” and the “IC50 (mM)” value was “No activity”.
In the case of `Cc1cc(-c2cccs2)c(NC(=S)NC(=O)c2ccccc2)c(=O)[nH]1` [Compound 11c, N-((6-Methyl-2-oxo-4-(thiophen-2-yl)-1,2-dihydropyridin-3-yl)carbamothioyl)benzamide], the melting point is 245 to 249 °C. In series [1], the “inhibitory activity … (in words)” value is given as “did not show inhibitory activity; also recorded: showed no inhibitory activity”, the “Inhibitory Activity of Test Compounds … (%)” value is “No activity” and the “IC50 (mM)” value is recorded as “No activity”.
